Assay results reported in ChEMBL document CHEMBL1127565, “Identification of two hydrophobic patches in the active-site cavity of human carbonic anhydrase II by solution-phase and solid-state studies and their use in the development of tight-binding inhibitors” (J Med Chem, 1994).

Target: Carbonic anhydrase 2 (Homo sapiens, UniProt P00918)
Description: Dissociation constant against human Carbonic anhydrase II (HCA II)

SMILES | Kd [nM]
NS(=O)(=O)c1ccc(C(=O)NCc2cccc3ccccc23)cc1 | 0.6
NS(=O)(=O)c1ccc(C(=O)NCC2CCCCC2)cc1 | 1.1
CCCCCCCCNC(=O)c1ccc(S(N)(=O)=O)cc1 | 2.5
NS(=O)(=O)c1ccc(C(=O)NCC23CC4CC(CC(C4)C2)C3)cc1 | 2.1
NS(=O)(=O)c1ccc(C(=O)N[C@@H](Cc2ccccc2)C(=O)NCC(=O)NCC(=O)O)cc1 | 21
NS(=O)(=O)c1ccc(C(=O)NCC(=O)NCC(=O)OCc2ccccc2)cc1 | 71
CCCCc1ccc(COC(=O)CNC(=O)CNC(=O)CNC(=O)c2ccc(S(N)(=O)=O)cc2)cc1 | 53
NS(=O)(=O)c1ccc(C(=O)NCc2ccc([N+](=O)[O-])cc2)cc1 | 2
NS(=O)(=O)c1ccc(C(=O)N[C@@H](Cc2ccccc2)C(=O)NCC(=O)NCC(=O)OCc2ccccc2)cc1 | 5.3
NS(=O)(=O)c1ccc(C(=O)NCc2cccnc2)cc1 | 4
NS(=O)(=O)c1ccc(C(=O)NCC(F)(F)C(F)(F)C(F)(F)C(F)(F)C(F)(F)C(F)(F)C(F)(F)F)cc1 | 0.3
NS(=O)(=O)c1ccc(C(=O)NC(=O)c2ccco2)cc1 | 5.6
CN(C)c1ccc(CNC(=O)c2ccc(S(N)(=O)=O)cc2)cc1 | 1.4
NS(=O)(=O)c1ccc(C(=O)NCC(=O)NCC(=O)NCC(=O)NCC(=O)OCc2ccccc2)cc1 | 210
NS(=O)(=O)c1ccc(C(=O)N[C@H](C(=O)NCC(=O)NCC(=O)OCc2ccccc2)c2ccccc2)cc1 | 0.9
NS(=O)(=O)c1ccc(C(=O)NCc2ccccn2)cc1 | 4.3
Cc1ccccc1CNC(=O)c1ccc(S(N)(=O)=O)cc1 | 2.2
NS(=O)(=O)c1ccc(C(=O)NCSc2ccccc2)cc1 | 1.7
NS(=O)(=O)c1ccc(C(=O)NCc2ccc(F)c(F)c2F)cc1 | 2.3
NS(=O)(=O)c1ccc(C(=O)NCc2ccncc2)cc1 | 1.4
CNC(=O)c1ccc(S(N)(=O)=O)cc1 | 150
NS(=O)(=O)c1ccc(C(=O)NCC(=O)NCC(=O)NCC(=O)OCc2ccccc2)cc1 | 75
NC(=O)c1ccc(S(N)(=O)=O)cc1 | 120
NS(=O)(=O)c1ccc(C(=O)N[C@H](Cc2ccccc2)C(=O)NCC(=O)NCC(=O)OCc2ccccc2)cc1 | 36
